Test [1] concerns the target T1, FPR2 (Homo sapiens (Human), UniProt P25090). The test can be described thus: FPR2 Ga16-CHO EC50 (efficacy), Tables 1-3. The test is classed as cell-based. The note with it: for FPR2 Ga16-CHO (efficacy): efficacy in parentheses.
The target of test [2] is T1, FPR2. The test can be described thus: FLIPR Ca+2 response, HEK-Gα16 cells stably expressing the human FPR2 receptor (Table 4). In kind it is cell-based. Conditions: efficacy in parentheses. The gist of the method: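 HEK-Gα16 cells stably expressing human FPR2, loaded with 2 μM Fluo-4 in HBSS/20 mM HEPES for 40 min at 37° C., then washed. Ligands added in HBSS/Hepes and Ca+2 responses recorded on FLIPR in relative fluorescence units.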

Some results are limits rather than exact numbers.

T1 sequence (P25090 whole entry): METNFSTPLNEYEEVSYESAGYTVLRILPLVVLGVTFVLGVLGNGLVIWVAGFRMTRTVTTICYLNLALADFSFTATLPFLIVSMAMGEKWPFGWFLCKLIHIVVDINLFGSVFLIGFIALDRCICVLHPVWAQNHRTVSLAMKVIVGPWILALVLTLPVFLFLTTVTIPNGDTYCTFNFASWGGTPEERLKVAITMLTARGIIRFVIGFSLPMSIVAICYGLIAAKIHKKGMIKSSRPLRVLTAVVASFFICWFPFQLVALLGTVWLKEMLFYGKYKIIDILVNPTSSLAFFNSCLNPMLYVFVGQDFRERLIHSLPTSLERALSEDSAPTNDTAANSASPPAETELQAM

Take `CCC1(CC)NC(=O)N(CC(=O)Nc2ccc(Br)cc2)C1=O` [N-(4-bromophenyl)-2-(4,4-diethyl-2,5-dioxoimidazolidin-1-yl)acetamide]: on FPR2 [1], the EC50 was 96 nM and the “FPR2 Ga16-CHO (efficacy)” value is given as “nM (0.98)”.

Consider `CC1(C)NC(=O)N(CC(=O)Nc2ccc(Br)cc2)C1=O` [N-(4-bromophenyl)-2-(4,4-dimethyl-2,5-dioxoimidazolidin-1-yl)acetamide], for which, at FPR2 [1], the EC50 was found to be 719 nM and the “FPR2 Ga16-CHO (efficacy)” value is “nM (0.94)”.

With `CC1(C2CC2)NC(=O)N(CC(=O)Nc2ccc(Br)cc2)C1=O` (stereo not drawn) [N-(4-bromophenyl)-2-(4-cyclopropyl-4-methyl-2,5-dioxoimidazolidin-1-yl)acetamide], at FPR2 [1], the EC50 stood at 166 nM and the “FPR2 Ga16-CHO (efficacy)” value was “nM (0.84)”.

For `CCCC1(CCC)NC(=O)N(CC(=O)Nc2ccc(Br)cc2)C1=O` [N-(4-bromophenyl)-2-(2,5-dioxo-4,4-dipropylimidazolidin-1-yl)acetamide], at FPR2 [1], a half-maximal effect (EC50) was put at 645 nM and the “FPR2 Ga16-CHO (efficacy)” value is listed as “nM (0.98)”.

Turning to `O=C(Nc1ccc(OC(F)(F)F)cc1)NC(Cc1ccccc1)C(=O)O` (stereo not drawn) [3-phenyl-2-[({[4-(trifluoromethoxy)phenyl]amino}carbonyl)amino]propanoic acid], on FPR2 [1], a half-maximal response (EC50) required 1570 nM and the “FPR2 Ga16-CHO (efficacy)” value is given as “nM (0.79)”.

On to `Cc1ccc(NC(=O)NN2C(=O)NC3(CCC(C)CC3)C2=O)cc1` (stereo not drawn) [1-(8-methyl-2,4-dioxo-1,3-diazaspiro[4,5]decan-3-yl)-3-(p-tolypurea], for which, on FPR2 [1], the EC50 was found to be 363 nM and the “FPR2 Ga16-CHO (efficacy)” value is “nM (0.91)”.

With `COc1ccc(NC(=O)NC(Cc2ccccc2)C(=O)O)cc1OC` (stereo not drawn) [2-({[(3,4-dimethoxyphenyl)amino]carbonyl}amino)-3-phenylpropanoic acid], at FPR2 [1], the EC50 turned out to be 2790 nM and the “FPR2 Ga16-CHO (efficacy)” value is “nM (0.72)”.

`CCC1(C)NC(=O)N(CC(=O)Nc2ccc(Br)cc2)C1=O` (stereo not drawn) [N-(4-bromophenyl)-2-(4-ethyl-4-methyl-2,5-dioxoimidazolidin-1-yl)acetamide]: at FPR2 [1], the EC50 was 485 nM and the “FPR2 Ga16-CHO (efficacy)” value is “nM (1.0)”.

Consider `COc1ccc(NC(=O)N[C@@H](Cc2ccccc2)C(=O)O)cc1` [(2S)-2-({[(4-methoxyphenyl)amino]carbonyl}amino)-3-phenylpropanoic acid], for which, on FPR2 [1], the EC50 was 1750 nM and the “FPR2 Ga16-CHO (efficacy)” value is given as “nM (0.90)”.

Take `CCC1(c2ccccc2)NC(=O)N(CC(=O)Nc2ccc(Br)cc2)C1=O` (stereo not drawn) [N-(4-bromophenyl)-2-(4-ethyl-2,5-dioxo-4-phenylimidazolidin-1-yl)acetamide]: at FPR2 [1], the EC50 amounted to 523 nM and the “FPR2 Ga16-CHO (efficacy)” value is on record as “nM (0.83)”.

In the case of `O=C(CN1C(=O)C2CC=CCC2C1=O)Nc1ccc(Br)cc1` (stereo not drawn) [N-(4-bromophenyl)-1,3,3a,4,7,7a-hexahydro-1,3-dioxo-2H-isoindole-2-acetamide], the “FPR2 Ga16-CHO (efficacy)” value on FPR2 [1] is recorded as “(0.98)”.

For the compound `CCC1(C)NC(=O)N(NC(=O)Nc2ccc(Cl)cc2)C1=O` (stereo not drawn) [1-(4-chlorophenyl)-3-(4-ethyl-4-methyl-2,5-dioxoimidazolidin-1-yl)urea], at FPR2 [1], it took 157 nM to reach a half-maximal effect (EC50) and the “FPR2 Ga16-CHO (efficacy)” value is “nM (0.96)”.

Regarding `O=C(Nc1ccc(Cl)cc1)NN1C(=O)NC2(CCCCC2)C1=O` [1-(4-chlorophenyl)-3-(2,4-dioxo-1,3-diazaspiro[4,5]decan-3-yl) urea], on FPR2 [1], a half-maximal effect (EC50) was put at 49 nM and the “FPR2 Ga16-CHO (efficacy)” value is given as “nM (0.98)”.

As for `O=C(CN1C(=O)NC2(CCCC2)C1=O)Nc1ccc(Br)cc1` [N-(4-bromophenyl)-2-(2,4-dioxo-1,3-diazaspiro[4.4]non-3-yl)acetamide], on FPR2 [1], the EC50 was 322 nM and the “FPR2 Ga16-CHO (efficacy)” value is recorded as “nM (0.96)”.

As to `O=C(Nc1ccc(Cl)c(Cl)c1)N[C@@H](Cc1ccccc1)C(=O)O` [(2S)-2-({[(3,4-dichlorophenyl)amino]carbonyl}amino)-3-phenylpropanoic acid], the “FPR2 Ga16-CHO (efficacy)” value at FPR2 [1] was “μM (0.57)”.

`CC(C)[C@H](NC(=O)Nc1ccc(Br)cc1F)C(=O)O` [(2S)-2-({[(4-bromo-2-fluorophenyl)amino]carbonyl}amino)-3-methylbutanoic acid]: on FPR2 [1], the EC50 came to 152 nM and the “FPR2 Ga16-CHO (efficacy)” value is “nM (0.91)”.

With `O=C(Nc1ccc(Br)cc1)N[C@@H](Cc1ccccc1)C(=O)O` [(2S)-2-({[(4-bromophenyl)amino]carbonyl}amino)-3-phenylpropanoic acid], at FPR2 [1], the EC50 came out at 31 nM and the “FPR2 Ga16-CHO (efficacy)” value was “nM (1.0)”.

In the case of `CCC1(CC)NC(=O)N(CC(=O)Nc2ccc(Cl)cc2)C1=O` [N-(4-chlorophenyl)-2-(4,4-diethyl-2,5-dioxoimidazolidin-1-yl)acetamide], at FPR2 [1], the EC50 came out at 314 nM and the “FPR2 Ga16-CHO (efficacy)” value is given as “nM (0.79)”.

`CCC1(CC)NC(=O)N(CC(=O)Nc2ccc(F)cc2)C1=O` [2-(4,4-diethyl-2,5-dioxoimidazolidin-1-yl)-N-(4-fluorophenyl)acetamide]: on FPR2 [1], the EC50 came to 2770 nM and the “FPR2 Ga16-CHO (efficacy)” value is recorded as “nM (0.67)”.

`O=C(Nc1ccc(C(F)(F)F)cc1)N[C@@H](Cc1ccccc1)C(=O)O` [(2S)-3-phenyl-2-[({[4-(trifluoromethyl)phenyl]amino}carbonyl)amino]propanoic acid]: at FPR2 [1], a half-maximal response (EC50) required 120 nM and the “FPR2 Ga16-CHO (efficacy)” value is “nM (0.97)”.

On to `O=C(CN1C(=O)NC2(CCCCC2)C1=O)Nc1ccc(Br)cc1` [N-(4-bromophenyl)-2-(2,4-dioxo-1,3-diazaspiro[4.5]dec-3-yl)acetamide], for which, at FPR2 [1], the EC50 stood at 738 nM and the “FPR2 Ga16-CHO (efficacy)” value is given as “nM (0.89)”.

With `O=C(Nc1ccc(Br)cc1)NC(Cc1c[nH]c2ccccc12)C(=O)O` (stereo not drawn) [2-({[(4-bromophenyl)amino]carbonyl}amino)-3-(1H-indol-3-yl)propanoic acid], at FPR2 [1], it took 67 nM to reach a half-maximal effect (EC50) and the “FPR2 Ga16-CHO (efficacy)” value is “nM (0.89)”.

Regarding `O=C(Nc1ccc(Br)cc1)N[C@H](C(=O)O)c1ccccc1` [(2S)-({[(4-bromophenyl)amino]carbonyl}amino) (phenyl)acetic acid], at FPR2 [1], the EC50 came out at 25.8 nM and the “FPR2 Ga16-CHO (efficacy)” value is listed as “nM (0.94)”.

With `O=C(Nc1ccc(Br)cc1)N[C@H](Cc1ccccc1)C(=O)O` [(2R)-2-({[(4-bromophenyl)amino]carbonyl}amino)-3-phenylpropanoic acid], on FPR2 [1], it took 1820 nM to reach a half-maximal effect (EC50) and the “FPR2 Ga16-CHO (efficacy)” value is recorded as “nM (0.99)”.

Consider `O=C(CN1C(=O)NC2(CCCCCC2)C1=O)Nc1ccc(Br)cc1` [N-(4-bromophenyl)-2-(2,4-dioxo-1,3-diazaspiro[4.6]undec-3-yl)acetamide], for which, at FPR2 [1], the EC50 was 679 nM and the “FPR2 Ga16-CHO (efficacy)” value is given as “nM (0.96)”.

In the case of `O=C(Nc1cccnc1)NC(Cc1ccccc1)C(=O)O` (stereo not drawn) [3-phenyl-2-{[(pyridin-3-ylamino)carbonyl]amino}propanoic acid], the EC50 at FPR2 [1] is above 10000 nM.

As for `CCC[C@H](NC(=O)[C@H](CC(C)C)NC(=O)Nc1ccc(Br)cc1)C(=O)OC(C)(C)C` [Compound 100, tert-butyl (2S)-2-{[(2S)-2-{[(4-bromophenyl)carbamoyl]amino}-4-methylpentanoyl]amino} pentanoate], the “FPR2 (efficacy)” value at FPR2 [2] is recorded as “nM (1.0)”.

With `CC(C)C[C@H](NC(=O)Nc1ccc(Br)cc1)C(=O)NC(CO)CO` [Compound 94, (2S)-2-{[(4-bromophenyl)carbamoyl]amino}-N-(1,3-dihydroxypropan-2-yl)-4-methylpentanamide], the “FPR2 (efficacy)” value at FPR2 [2] was “nM (0.96)”.

A word on the EC50: it is the concentration giving half of the maximal effect. Lower therefore signals higher potency in that assay.
